For orientation: inhibition means the change of the read-out against control, counted positive when it falls. One may read the IC50 as the concentration needed to halve the response being measured.

Consider 24 compounds from US20230265068A1, “TRANSIENT RECEPTOR POTENTIAL CANONICAL 3 INHIBITORS AND METHODS OF USE THEREOF” (University of Tennessee Research Foundation, priority 2020, published 2023).

The target of the first experiment is T1, TRPC3 (Homo sapiens, UniProt Q13507).
T1 sequence (Q13507 1-921): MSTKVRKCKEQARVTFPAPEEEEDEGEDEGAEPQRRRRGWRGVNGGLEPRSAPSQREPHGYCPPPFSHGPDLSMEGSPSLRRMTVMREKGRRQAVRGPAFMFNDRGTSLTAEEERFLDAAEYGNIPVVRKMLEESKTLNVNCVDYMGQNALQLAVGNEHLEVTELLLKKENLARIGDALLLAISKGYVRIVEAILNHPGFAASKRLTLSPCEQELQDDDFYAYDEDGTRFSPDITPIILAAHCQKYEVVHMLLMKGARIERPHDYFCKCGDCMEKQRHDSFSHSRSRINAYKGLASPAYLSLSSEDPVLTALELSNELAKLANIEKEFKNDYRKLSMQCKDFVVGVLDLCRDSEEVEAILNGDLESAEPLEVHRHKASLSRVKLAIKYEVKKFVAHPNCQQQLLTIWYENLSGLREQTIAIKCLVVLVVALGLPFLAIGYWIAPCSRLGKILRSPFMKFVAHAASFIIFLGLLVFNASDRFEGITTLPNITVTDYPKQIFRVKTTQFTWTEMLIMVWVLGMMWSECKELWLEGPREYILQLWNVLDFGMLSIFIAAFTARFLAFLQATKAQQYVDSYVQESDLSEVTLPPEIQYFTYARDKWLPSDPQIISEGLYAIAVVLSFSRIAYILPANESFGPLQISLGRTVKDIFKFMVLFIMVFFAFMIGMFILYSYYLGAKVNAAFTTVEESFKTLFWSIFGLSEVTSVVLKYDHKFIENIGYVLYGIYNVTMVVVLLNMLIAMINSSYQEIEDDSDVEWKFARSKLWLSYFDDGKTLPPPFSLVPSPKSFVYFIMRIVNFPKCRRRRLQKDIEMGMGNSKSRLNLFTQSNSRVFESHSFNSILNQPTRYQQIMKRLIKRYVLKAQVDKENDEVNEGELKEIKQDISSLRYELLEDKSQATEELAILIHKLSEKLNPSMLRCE
The experiment in a line: whole-cell patch clamp of HEK293 cells transfected with hTRPC3, currents activated by GSK1702934A. Format: cell-based. Details: expressed in transfected cells; host or cells: HEK293 (CRL-1573), transient transfection, pMO vector. To be noted: 10 μM compound in presence of agonist GSK1702934A; HEK293 whole-cell peak current; read-out: hTRPC3 % Inhibition at 10 μM (mean ± SEM). The procedure: Human embryonic kidney 293 (HEK293; catalog number CRL-1573) cells were cultured in Dulbecco's modified Eagle's medium (Invitrogen) supplemented with 10% fetal bovine serum and 1% penicillin-streptomycin at 37° C. and 5% CO2. Constructs cloned in pMO (a pcDNA3-modified vector) were co-transfected with GFP-pMO, using Lipofectamine 2000 (Invitrogen) according to the manufacturer's instructions. Macroscopic currents in the whole-cell patch clamp configuration were recorded 18-24 h post-transfection. The extracellular solution contained 140 mM NaCl, 6 mM KCl, 2 mM MgCl2, 10 mM HEPES, and 10 mM glucose (pH 7.4). Pipettes were made of borosilicate glass (outer diameter, 1.5 mm; inner diameter, 1.10 mm; Sutter Instruments) and fire-polished with a resistance between 2.8 and 4.0 megaohms when filled with an intracellular solution that contained 140 mM CsCl, 5 mM EGTA, and 10 mM HEPES, pH 7.2. Currents were recorded with a Multiclamp 700B amplifier (Molecular Devices) using a 1-s ramp from −100 to 100 mV. Agonist and antagonists perfused were dissolved in the bath solution prior experiments: TRP channel agonists Allyl isothiocyanate (AITC; TRPA1), capsaicin (TRPV1), and menthol (TRPM8) were obtained from Sigma, GSK1016790A (TRPV4) from Cayman chemicals, and GSK1702934A (TRPC3, TRPC6 and TRPC7) from Tocris Bioscience. Antagonist Pyr3 was obtained from Tocris Bioscience, all other antagonists were synthesized in house. Data were acquired with a sampling rate of 20 kHz, low-pass filtered (10 kHz), and analyzed offline using Clampfit v10.4.2.0 (Molecular Devices).
Electrophysiology results were expressed as means±SD. Data were plotted, and sigmoidal fitting was done using OriginPro (from OriginLab), with the following Boltzmann function:
Using the patch clamp technique in the whole-cell configuration, compounds were screened by challenging hTRPC3 overexpressing HEK293 cells with GSK1702934A to activate TRPC3 and each of the synthesized compounds (10 μM) individually in the presence of the agonist.
To avoid tachyphylaxis and determine the IC50 of compound 22, each point of the dose response curve (FIG. 1B) was done individually on a cell and exchanging coverslips between cells. […] FIGS. 1D-1I show the inhibition of TRPC3-mediated currents by compound 22 and Pyr3 (serving as the reference control). […] Similar results were obtained when OAG was used as the agonist (data not shown).
(Patch clamp records ionic current or voltage across a cell membrane.)
Turning to `CCOC(=O)c1cnn(-c2ccc(-n3ccccc3=O)cc2)c1C(F)(F)F` [Compound 1, Ethyl 1-(4-(2-oxopyridin-1(2H)-yl)phenyl)-5-(trifluoromethyl)-1H-pyrazole-4-carboxylate], the inhibition at 10 µM worked out at 49.5 ± 3.91%.
Still for that read-out and setting: for `CCOC(=O)c1cnn(-c2ccc(-n3ccc(Cl)cc3=O)cc2)c1C(F)(F)F` [Compound 2, Ethyl 1-(4-(4-chloro-2-oxopyridin-1(2H)-yl)phenyl)-5-(trifluoromethyl)-1H-pyrazole-4-carboxylate] the value was 71.1 ± 2.66%.
Same read-out and setting: for `CCOC(=O)c1cnn(-c2ccc(-n3cc(Cl)ccc3=O)cc2)c1C(F)(F)F` [Compound 3, Ethyl 1-(4-(5-chloro-2-oxopyridin-1(2H)-yl)phenyl)-5-(trifluoromethyl)-1H-pyrazole-4-carboxylate] the value was 54 ± 7.25%; for `CCOC(=O)c1cnn(-c2ccc(-n3ccc(Cl)c(Cl)c3=O)cc2)c1C(F)(F)F` [Compound 4, Ethyl 1-(4-(3,4-dichloro-2-oxopyridin-1(2H)-yl)phenyl)-5-(trifluoromethyl)-1H-pyrazole-4-carboxylate], 51.4 ± 4.35%; for `CCOC(=O)c1cnn(-c2ccc(-n3cc(Cl)c(Cl)cc3=O)cc2)c1C(F)(F)F` [Compound 5, Ethyl 1-(4-(4,5-dichloro-2-oxopyridin-1(2H)-yl)phenyl)-5-(trifluoromethyl)-1H-pyrazole-4-carboxylate], 39.1 ± 2.31%.
Same read-out and setting: for `CCOC(=O)c1cnn(-c2ccc(-n3cc(Cl)cc(Cl)c3=O)cc2)c1C(F)(F)F` [Compound 6, Ethyl 1-(4-(3,5-dichloro-2-oxopyridin-1(2H)-yl)phenyl)-5-(trifluoromethyl)-1H-pyrazole-4-carboxylate] the value was 50.5 ± 5.49%; for `CCOC(=O)c1cnn(-c2ccc(-n3cc(Cl)c(Cl)c(Cl)c3=O)cc2)c1C(F)(F)F` [Compound 9, Ethyl 1-(4-(3,4,5-trichloro-2-oxopyridin-1(2H)-yl)phenyl)-5-(trifluoromethyl)-1H-pyrazole-4-carboxylate], 39.1 ± 2.31%.
With `CCNC(=O)c1cnn(-c2ccc(-n3ccc(Cl)cc3=O)cc2)c1C(F)(F)F` [Compound 21, 1-(4-(4-chloro-2-oxopyridin-1(2H)-yl)phenyl)-N-ethyl-5-(trifluoromethyl)-1H-pyrazole-4-carboxamide], the inhibition at 10 µM was 84.52 ± 0.722%.
As for `CCNC(=O)c1cnn(-c2ccc(-n3cc(Cl)c(Cl)cc3=O)cc2)c1C(F)(F)F` [Compound 23], the inhibition at 10 µM is 51.5 ± 6%.
Turning to `CCNC(=O)c1cnn(-c2ccc(-n3ccc(Cl)c(F)c3=O)cc2)c1C(F)(F)F` [Compound 24], the inhibition at 10 µM worked out at 55.5 ± 7.07%.
On the same count and under the same terms, for `CCNC(=O)c1cnn(-c2ccc(-n3ccc(Cl)c(Br)c3=O)cc2)c1C(F)(F)F` [Compound 25, 1-(4-(3-bromo-4-chloro-2-oxopyridin-1(2H)-yl)phenyl)-N-ethyl-5-(trifluoromethyl)-1H-pyrazole-4-carboxamide] the value was 76 ± 6.65%; for `CCNC(=O)c1cnn(-c2ccc(-n3ccc(C(F)(F)F)c(Cl)c3=O)cc2)c1C(F)(F)F` [Compound 27, 1-(4-(3-chloro-2-oxo-4-(trifluoromethyl)pyridin-1(2H)-yl)phenyl)-N-ethyl-5-(trifluoromethyl)-1H-pyrazole-4-carboxamide], 89.4 ± 6.45%; for `CCNC(=O)c1cnn(-c2ccc(-n3ccc(O)c(Cl)c3=O)cc2)c1C(F)(F)F` [Compound 32, 1-(4-(3-chloro-4-hydroxy-2-oxopyridin-1(2H)-yl)phenyl)-N-ethyl-5-(trifluoromethyl)-1H-pyrazole-4-carboxamide], 96 ± 1.37%.
Same read-out and setting: for `CCNC(=O)c1cnn(-c2ccc(-n3cc(Cl)c(Cl)c(Cl)c3=O)cc2)c1C(F)(F)F` [Compound 33] the value was 45.2 ± 3.59%; for `CCNC(=O)c1cnn(-c2ccc(-n3cc(Br)c(Cl)c(Br)c3=O)cc2)c1C(F)(F)F` [Compound 34], 34 ± 6.52%.
On the same count and under the same terms, for `NC(=O)c1cnn(-c2ccc(-n3ccc(Cl)c(Cl)c3=O)cc2)c1C(F)(F)F` [Compound 37, 1-(4-(3,4-dichloro-2-oxopyridin-1(2H)-yl)phenyl)-5-(trifluoromethyl)-1H-pyrazole-4-carboxamide] the value was 40.2 ± 10.3%; for `CCCNC(=O)c1cnn(-c2ccc(-n3ccc(Cl)c(Cl)c3=O)cc2)c1C(F)(F)F` [Compound 39, 1-(4-(3,4-dichloro-2-oxopyridin-1(2H)-yl)phenyl)-N-propyl-5-(trifluoromethyl)-1H-pyrazole-4-carboxamide], 71.5 ± 4.51%; for `CCCCNC(=O)c1cnn(-c2ccc(-n3ccc(Cl)c(Cl)c3=O)cc2)c1C(F)(F)F` [Compound 40, N-butyl-1-(4-(3,4-dichloro-2-oxopyridin-1(2H)-yl)phenyl)-5-(trifluoromethyl)-1H-pyrazole-4-carboxamide], 40.2 ± 3.95%.
For `CC(C)NC(=O)c1cnn(-c2ccc(-n3ccc(Cl)c(Cl)c3=O)cc2)c1C(F)(F)F` [Compound 41, 1-(4-(3,4-dichloro-2-oxopyridin-1(2H)-yl)phenyl)-N-isopropyl-5-(trifluoromethyl)-1H-pyrazole-4-carboxamide], the inhibition at 10 µM was 25.8 ± 8.57%.
As to `CCN(CC)C(=O)c1cnn(-c2ccc(-n3ccc(Cl)c(Cl)c3=O)cc2)c1C(F)(F)F` [Compound 43, 1-(4-(3,4-dichloro-2-oxopyridin-1(2H)-yl)phenyl)-N,N-diethyl-5-(trifluoromethyl)-1H-pyrazole-4-carboxamide], the inhibition at 10 µM was 94.8 ± 2.75%.
Take `O=C(NC1CC1)c1cnn(-c2ccc(-n3ccc(Cl)c(Cl)c3=O)cc2)c1C(F)(F)F` [Compound 44, N-cyclopropyl-1-(4-(3,4-dichloro-2-oxopyridin-1(2H)-yl)phenyl)-5-(trifluoromethyl)-1H-pyrazole-4-carboxamide]: the inhibition at 10 µM turned out to be 74.8 ± 5.65%.
For the compound `O=C(c1cnn(-c2ccc(-n3ccc(Cl)c(Cl)c3=O)cc2)c1C(F)(F)F)N1CCCC1` [Compound 45, 3,4-dichloro-1-(4-(4-(pyrrolidine-1-carbonyl)-5-(trifluoromethyl)-1H-pyrazol-1-yl)phenyl)pyridin-2(1H)-one], the inhibition at 10 µM worked out at 86.7 ± 3.82%.
Regarding `CCc1nnc(-c2cnn(-c3ccc(-n4ccc(Cl)c(Cl)c4=O)cc3)c2C(F)(F)F)o1` [Compound 46, 3,4-dichloro-1-(4-(4-(5-ethyl-1,3,4-oxadiazol-2-yl)-5-(trifluoromethyl)-1H-pyrazol-1-yl)phenyl)pyridin-2(1H)-one], the inhibition at 10 µM was found to be 92.9 ± 6.78%.
As to `CCNS(=O)(=O)c1cnn(-c2ccc(-n3ccc(Cl)c(Cl)c3=O)cc2)c1C(F)(F)F` [Compound 48, 1-(4-(3,4-dichloro-2-oxopyridin-1(2H)-yl)phenyl)-N-ethyl-5-(trifluoromethyl)-1H-pyrazole-4-sulfonamide], the inhibition at 10 µM amounted to 67.8 ± 1.75%.

The experiment is the same for the next values; noted with them: agonist GSK1702934A; HEK293 whole-cell patch clamp; read-out: hTRPC3 IC50 (μM, mean ± SEM).
Consider `CCNC(=O)c1cnn(-c2ccc(-n3ccc(O)c(Cl)c3=O)cc2)c1C(F)(F)F` [Compound 32, 1-(4-(3-chloro-4-hydroxy-2-oxopyridin-1(2H)-yl)phenyl)-N-ethyl-5-(trifluoromethyl)-1H-pyrazole-4-carboxamide], for which the concentration for half-maximal inhibition (IC50) amounted to 0.35 ± 0.09 µM.
On to `CCN(CC)C(=O)c1cnn(-c2ccc(-n3ccc(Cl)c(Cl)c3=O)cc2)c1C(F)(F)F` [Compound 43, 1-(4-(3,4-dichloro-2-oxopyridin-1(2H)-yl)phenyl)-N,N-diethyl-5-(trifluoromethyl)-1H-pyrazole-4-carboxamide], for which the IC50 was found to be 4.32 ± 0.98 µM.
As to `CCc1nnc(-c2cnn(-c3ccc(-n4ccc(Cl)c(Cl)c4=O)cc3)c2C(F)(F)F)o1` [Compound 46, 3,4-dichloro-1-(4-(4-(5-ethyl-1,3,4-oxadiazol-2-yl)-5-(trifluoromethyl)-1H-pyrazol-1-yl)phenyl)pyridin-2(1H)-one], the 50% inhibitory concentration (IC50) is 0.29 ± 0.05 µM.
